Measurements taken from PMC5365662, “A Short Double-Stapled Peptide Inhibits Respiratory Syncytial Virus Entry and Spreading” (Antimicrobial Agents and Chemotherapy, 2017).
Bridge positions count the residues as written; N and C are the ends. Square brackets hold non-standard residues; d marks the D form. Peptide text beside a SMILES is read from it. R5 = C=CCCC[C@@](C)(N)C(=O)O; S5 = C=CCCC[C@](C)(N)C(=O)O

Assays:
[1] = Proteolytic stability assay, chymotrypsin; assay type: in vitro ADME; conditions: chymotrypsin (isolated protease); 10 μl peptide 0.29 mM in 990 μl 100 mM Tris-HCl pH 8.0, 10 mM CaCl2; 10 μl chymotrypsin 50 μg/ml; 25°C; LC-MS of intact peptide, exponential decay fit; 3 experiments
Procedure: This is an important parameter to assess for the development of peptide therapeutics. Peptides 4bb, 4ca, and 4a, and the unstapled analog peptide 4, as well as both SAH-RSVFBD isomers, were treated with chymotrypsin or trypsin, and the samples were analyzed by LC/MS to quantify the reaction products over time. […] In comparison, both SAH-RSVFBD isomers were more susceptible to proteolytic degradation, with half-lives of approximately 7 h and 5 min against chymotrypsin and trypsin, respectively.
In vitro proteolytic degradation was measured via LC-MS using an Agilent Infinity 1280 UHPLC system coupled to an Agilent quadrupole time of flight (QTOF) 6530 instrument with an Agilent Jet Stream electrospray ionization (AJS ESI) source (all from Agilent Technologies, Waldbronn, Germany). Five microliters of digested sample was injected onto a C18 column (Zorbax Eclipse Plus RRHD, 1.8 μm, 2.1 by 100 mm; Agilent Technologies, Waldbronn, Germany) equilibrated with solvent A (5% acetonitrile, 0.2% formic acid) and eluted with a flow rate of 0.4 ml/min over a 5 to 95% gradient of solvent B (95% acetonitrile, 0.2% formic acid) in 5 min, followed by 1.5 min at 95% and 0.5 min posttime. The AJS ESI source was operated with a capillary voltage of 4,000 V and a nozzle voltage of 600 V with a drying gas temperature of 325°C and flow rate of 10 liters/min, nebulizing gas pressure of 20 lb/in^2, and a sheath gas temperature of 300°C and flow rate of 11 liters/min. Mass spectra were acquired in the positive-ion mode from 100 to 3,200 m/z at a rate of 1 scan per second in extended dynamic range (2 GHz) mode. The fragmentor, skimmer, and octopole RF voltages were set to 200, 60, and 750 V, respectively. Data were acquired and analyzed with the Agilent MassHunter Workstation (version B.05).
Peptide digestion was performed as follows: 10 μl of peptide at 0.29 mM in 50:50 acetonitrile-water was dissolved in 990 μl 100 mM Tris-HCl (pH 8.0) with 10 mM CaCl2. Following measurement of the undigested (t0) sample, 10 μl of chymotrypsin at 50 μg/ml in 100 mM Tris-HCl (pH 8.0) with 10 mM CaCl2 was added, and the sample was vortexed and placed immediately in the autosampler, set to 25°C. The level of intact peptide was quantified by serial injection over time. Integration of the intact peptide compound chromatogram was performed using the Agilent Molecular Feature Extraction (MFE) algorithm. The value of the fit at t = 0 min was used to calculate the percentage of the intact peptide at each point as follows: Percent intact (t) = [Vol (t)/Volt0] × 100, where Vol is the total volume calculated using Find Compounds by Molecular Feature and Volt0 is the value of the fit at time t = 0. A plot of the intact peptide MFE peak area over time gave an exponential decay curve, from which the half-life was determined using MatLab […].

HEp-2 cells = assay: Cytotoxicity, CellTiter-Glo Luminescent cell viability assay; assay type: cell-based; conditions: serial dilutions of peptide, 24 h, duplicates
Procedure: Viral replication was quantified by measuring the mCherry fluorescence at 48 h p.i. and normalized based on the fluorescence of infected and untreated cells. (B) Cytotoxicity assay. HEp-2 cells were incubated in the presence of serial dilutions of peptides, and cell survival was quantified using the CellTiter-Glo Luminescent cell viability assay 24 h after the addition of the peptides. The signal was normalized based on the luminescence obtained for untreated cells. Error bars are standard deviations from duplicates.
A549 (ATCC CCL-185) cells were maintained in Dulbecco's modified Eagle medium (DMEM) supplemented with 10% fetal calf serum (FCS). HEp-2 (ATCC CCL-23) cells were maintained in Eagle's miminum essential medium (EMEM) supplemented with 10% FCS, 2 mM L-glutamine, and penicillin-streptomycin solution. The cells were grown in an incubator at 37°C in 5% CO2. Cytotoxicity assays were done with the CellTiter-Glo Luminescent cell viability assay (Promega).

rHRSV-Luc = assay: RSV infection of mice, intranasal treatment, in vivo luminescence; conditions: BALB/c, n = 4
Procedure: In order to track the infection, we used the recombinant virus rHRSV-Luc, which was previously shown to allow in vivo imaging studies of RSV replication and spreading and constitutes a powerful and convenient tool for the evaluation of drug efficiency against RSV in the mouse model ([24]). […] Mice were anesthetized at day 3 p.i. and observed alive using the IVIS imaging system 5 min after i.n. injection of D-luciferin. […] At day 3 p.i., a second dose of the peptide was administered to the mice, and the bioluminescence was measured at day 5 p.i. […]
Female BALB/c mice were purchased from the Centre d'Elevage R. Janvier (Le Genest Saint-Isle, France) and were used at 8 weeks of age. […] Luminescence measurement was then performed at day 5 p.i.
Mice were anesthetized, and luminescence was measured 5 min following i.n. injection of 50 μl of PBS containing 0.75 mg kg^−1 of body weight D-luciferin (Sigma). Photon emission of mock-infected and rHRSV-Luc-infected mice was measured using the IVIS 200 imaging system (Xenogen Corp.). […] Digital false-color photon emission images of mice were generated, and photons were counted within a constant region of interest corresponding to the surface of the chest encompassing the whole-airway area. Photon emission was measured as radiance in photons per second per square centimeter per steradian (p s^−1 cm^−2 sr^−1).

[2] = assay type: in vivo; conditions: noninfected mice, same i.n. protocol, blood 1 month after first inoculation, ELISA, data not shown
Procedure: To investigate this further, peptide 4ca was administered to noninfected animals according to the same protocol. The blood of mice was collected 1 month after the first inoculation, and the presence of anti-4ca antibodies in the sera of these animals was analyzed by enzyme-linked immunosorbent assay (ELISA).

## CC[C@H](C)[C@@H]1NC(=O)[C@H](Cc2ccccc2)NC(=O)[C@@](C)(NC(=O)[C@H](CC(C)C)NC(=O)[C@H](CO)NC(=O)[C@]2(C)CCCC=CCCC[C@@](C)(NC(=O)[C@H](CCC(=O)O)NC(C)=O)C(=O)N[C@@H]([C@@H](C)CC)C(=O)N[C@@H](CC(N)=O)C(=O)N2)CCCC=CCCC[C@@](C)(C(=O)N[C@@H](CO)C(=O)N[C@@H](CC(=O)O)C(=O)N[C@@H](CCC(=O)O)C(=O)N[C@@H](CC(C)C)C(=O)N[C@@H](CC(C)C)C(=O)N[C@@H](Cc2c[nH]cn2)C(=O)N[C@@H](CC(N)=O)C(=O)N[C@H](C(N)=O)C(C)C)NC(=O)[C@H](CCCNC(=N)N)NC1=O [Peptide 4ca] (Ac-E[R5]IN[S5]SL[S5]FIR[S5]SDELLHNV-NH2; staple 2-5, 8-12)
[1]
  half-life at 2.9 µM: 7.5 days
HEp-2 cells
  cellular toxicity: no cellular toxicity was detected
rHRSV-Luc; i.n. 50 μl at 50 μM in PBS at day 0 (10 min before rHRSV-Luc 5 × 10^4 PFU) and day 3, day 5 p.i.
  decrease of viral infection versus untreated mice (bioluminescence): 3 fold
rHRSV-Luc; i.n. 50 μl at 50 μM in PBS, rHRSV-Luc 5 × 10^4 PFU, day 3 p.i.
  bioluminescence in snout and lungs versus control mice: clearly reduced
[2]
  antibodies specific to 4ca in sera (anti-IgG1, anti-IgG2a, anti-IgA): no antibodies specific to 4ca could be detected
